Laboratory results as given in patent US20240075140A1, “ENGINEERED NK CELLS AND METHODS OF TREATING CANCER” (American Gene Technologies Intemational Inc, priority 2021, published 2024).

System: Daudi cells
Experiment: CD107a response of Mitomycin C treated S76 to Daudi cells
Assay type: cell-based
Details: various concentrations, 1 or 2 hours; Daudi 2:1, 4 hours
Procedure: Cloned S76 cells were treated with MMC at various concentration for 1 or 2 hours. After MMC treatment, S76 was mixed with Daudi cells at a 2:1 ratio for 4 hours. CD107a was measured by flow cytometry. For detecting CD107a, cells were washed, resuspended in 50-100 μl of staining buffer, and stained with mouse anti-human Vδ2-PE clone B6 and mouse anti-human CD107a-APC clone H4A3. Cells were washed with staining buffer and resuspended. Data for at least 1×10^4 lymphocytes (gated on the basis of forward- and side-scatter profiles) were acquired from each sample on a FACSCalibur flow cytometer (BD Biosciences). All samples were analyzed using FlowJo software.

CO[C@@]12[C@H](COC(N)=O)C3=C(C(=O)C(C)=C(N)C3=O)N1C[C@@H]1N[C@@H]12 [MMC, Mitomycin C]
effect of Mitomycin C treatment on function of clone S76 (CD107a response to Daudi): did not significantly impair the function
